Laboratory results as given in patent EP1338283A1, “Use of neoruscine to treat alopecia” (Pierre Fabre Dermo-Cosmetique, priority 2002, dated 2003).

How the values were obtained:
[1] = tested on: VEGF; assay: VEGF assay (ELISA) in supernatants of dermal papilla cell cultures; assay type: cell-based; settings: néoruscine 50 µg/ml, 24 h treatment, dermal papilla cells, ELISA on supernatants
Procedure: La suspension de cellules de la papille dermique (10^6 cellules/2 ml) dans le DMEM 10 % SVF est distribuée dans les plaques 6 puits (10^6 cellules/puits) et incubée pendant 18 heures à 37°C dans une atmosphère à 5 % CO2. Les cellules de la papille folliculaire sont alors rincées avec du PBS pour éliminer les cellules non adhérentes puis exposées pendant 24 heures aux produits à tester inclus dans du DMEM sans SVF (qui pourrait interférer dans le dosage). Pour chaque produit testé, 3 puits sont réalisés.
L'extrait de Ruscus et la néoruscine purifiée sont testés en culture.
Après 24 heures de traitement, les surnageants sont récupérés, centrifugés puis conservés à -80°C avant leur utilisation ultérieure pour le dosage du VEGF.
La production du VEGF dans les surnageants est mesurée par Kit Elisa (R&D Biosystems). Les résultats sont exprimés en picogrammes de VEGF par 10^6 cellules et en pourcentages d'activité. Dans ce test la néoruscine à 50 µg/ml stimule la production du VEGF de 329 %.

[2] = tested on: gène du VEGF; assay: VEGF gene expression (RT-PCR) in dermal papilla cells; assay type: cell-based, humaine; settings: néoruscine 50 µg/ml, 3 h incubation
Procedure: La suspension de cellules de la papille folliculaire (10^6 cellules par boîte de 25 cm^2) dans le milieu DMEM est distribuée dans les boîtes de culture puis incubés pendant 12 heures à 37°C dans une atmosphère à 5 % de CO2. Les CPD sont ensuite rincées avec du PBS pour éliminer les cellules non adhérentes.
Pour chaque lot, les cellules sont pré-incubées pendant 3 heures avec les produits à tester préparés dans du DMEM. Les cellules sont ensuite rincées deux fois au PBS.
Après rinçage au PBS, les boîtes de culture sont déposées sur de la glace. Les cellules sont traitées avec la solution d'extraction d'ARN, RNAβTM (1 ml/boîte).
Les lysats cellulaires sont ensuite récupérés, centrifugés après avoir ajouté du chloroforme. Trois phases sont alors observables • inférieure contenant les débris cellulaires - interface contenant l'ADN • […] supérieure avec l'ARN
Les surnageants sont prélevés, les ARN sont précipités avec de l'isopropanol. […]
La quantité d'ARN ainsi que la pureté sont déterminées par spectrophotométrie (Chomczynski P., Sacchi N. Anal. Biochem. 1987; 162: […]). […]
Une caméra UV permet de saisir l'image du gel et la quantification du volume et de l'intensité des bandes correspondant à l'ADNc du VEGF se fait à l'aide d'un logiciel d'analyse d'image.

[3] = tested on: gène cytochrome P450 aromatase; assay: Cytochrome P450 aromatase gene expression (RT-PCR) in dermal papilla cells; assay type: cell-based, humaine; settings: néoruscine 5 µg/ml, 3 h exposure, human dermal papilla cells
Procedure: Nous avons évalué, dans le cadre de cet exemple, l'activité de la néoruscine sur la transcription du gène VEGF par les cellules de la papille dermique humaine en culture.
Les cellules de la papille dermique sont ensemencées à 10^6 cellules par boîte dans du DMEM à 10 % de SVF et 1 % de Pénicilline/Streptomycine pendant 24 heures à 37°C dans une atmosphère à 5 % CO2. Les cellules de la papille folliculaire sont alors rincées avec du PBS pour éliminer les cellules non-adhérentes puis exposées aux produits à tester dans du DMEM sans SVF (qui pourrait interférer dans le dosage) durant 3 heures.
Les principes actifs ont été testés en culture à des concentrations non cytotoxiques. Une boîte de culture est réalisée pour chaque lot.
Après rinçage au PBS, les boîtes de culture sont déposées sur de la glace. Les cellules sont traitées avec la solution d'extraction d'ARN, RNA βTM (1 ml/boîte). […]
Les surnageants sont prélevés, les ARN sont précipités avec de l'isopropanol. […] La quantité d'ARN ainsi que la pureté sont déterminées par spectrophotométrie.
L'ARN total (1 µg) est rétro-transcrit en ADN complémentaire une heure à 48°C avec le kit Access RT-PCR system (Promega). […] Une caméra UV permet de saisir l'image du gel et la quantification du volume et de l'intensité des bandes correspondant à l'ADNc et du cytochrome P450 aromatase se fait à l'aide d'un logiciel d'analyse d'image. […]

[4] = tested on: follicule pileux humain; assay: Growth of human hair follicle ex vivo; assay type: cell-based; settings: 5 days of treatment, activity versus controls
Procedure: Les follicules pileux sont issus de scalp humain provenant du service de chirurgie plastique des hôpitaux ou des cliniques. La peau est rasée puis lavée dans 10 bains successifs de 10 min de PBS supplémentés d'antibiotiques (pénicilline 100 unités/ml et streptomycine 100 µg/ml). Les follicules en phase anagène reconnaissables car très vascularisés sont ensuite isolés de la peau sous la loupe binoculaire et débarrassés de la graisse. Ils sont ensuite incubés à 37°C dans des boîtes de culture dans du milieu de culture DMEM contenant le produit à tester. Le milieu de culture des follicules ne contient pas de sérum. Ce milieu est composé de 10µg/ml d'insuline, de 10 µg/ml de transferrine, de 10 µg/ml d'hydrocortisone, de 1% d'un mélange de pénicilline (100 uités /ml)-streptomycine (100µg/ml), de 2,5 µg/ml de fungizone et de la L-glutamine à 1mM.
Les follicules sont mis en présence de différentes concentrations de néoruscine (50, 100 et 300 µg/ml) (10 follicules par traitement). Les témoins sont cultivés dans du milieu sans produit.
La croissance de la tige des follicules pileux est mesurée à l'aide de papier millimétré sous loupe binoculaire au jour 0 et tous les jours pendant 5 jours. Une caméra numérique permet de saisir les images de follicules pileux et de calculer avec précision leur taux de croissance. Le pourcentage de croissance = (mesure Tx - mesure T0)/ mesure T0). [formula] […]

néoruscine
stimule la production du VEGF [1]: 329% | stimulation de la transcription du gène du VEGF [2]: 24,5% | stimule la transcription du gène cytochrome P450 aromatase [3]: 81% | croissance des follicules pileux humains, activité du traitement ([4]; néoruscine 100 µg/ml): 77,08% | croissance des follicules pileux humains, activité du traitement ([4]; néoruscine 300 µg/ml): 118,09%
